Legend:
P-glycoprotein (P-gp) = assay: Flow cytometry analysis of P-glycoprotein expression in Caco-2 cells (UIC2-PE antibody); assay type: cell-based, human; conditions: 20 µM, 24 h
Description: However, the ability of compounds 9–17 to interfere with the fluorescence of the UIC2-PE antibody was assessed first. For this purpose, Caco-2 cells were incubated for 24 h, in the presence or absence of thioxanthone derivatives (20 μM), and subsequently analysed, by flow cytometry, as described for the P-gp expression assay. A remarkable increase in the intracellular fluorescence of cells exposed to compounds 10–13 and 15–17 was observed, making it impossible to assess the effect of these thioxanthone derivatives on P-gp expression. In fact, compounds 15–17 had previously been reported as fluorescent compounds [15] and this characteristic limited some of the studies reported herein. […] Briefly, Caco-2 cells were seeded in 24-well plates at a density of 60,000 cells/cm^2 and exposed, three days after seeding, to a non-cytotoxic concentration of the tested compounds (20 µM). […] The cells were then washed twice with HBSS (+/+), centrifuged (300 g for 5 min, at 4 °C) and kept on ice until analysis. […] The parameter used for comparison was the mean fluorescence intensity (MFI), calculated as a percentage of control cells (0 μM). The cells autofluorescence (unlabelled cells with or without exposure to the tested compounds) was also evaluated to eliminate its potential contribution to the analysed fluorescence signals. […]

E. coli SA/2 = assay: Synergy with cefotaxime (antibiotic MIC in presence of compound); assay type: cell-based
Excerpt: (§1) The referred library of thioxanthones was initially tested for their antimicrobial activity against six bacterial strains: the Gram-negative Escherichia coli ATCC 25922, Pseudomonas aeruginosa ATCC 27853 and Salmonella enterica serovar Typhimurium SL1344 (SE03), with the acrA gene deleted, and the Gram-positive Staphylococcus aureus ATCC 29213, Enterococcus faecalis ATCC 29212 and the methicillin and ofloxacin-resistant clinical isolate S. aureus 272123. For the synergy assay, two clinically relevant isolates were used: the extended-spectrum β-lactamase (ESBL)-producing E. coli SA/2 [23] and the vancomycin-resistant E. faecalis (VRE) B3/101 [23]. The antibiotics used were cefotaxime (CTX) and vancomycin (VAN), respectively.
The combined effect of the compounds and clinically relevant antimicrobial drugs was evaluated by determining the antibiotic’s MIC in the presence of each compound. […] The antibiotic tested was serially diluted, whereas the concentration of each compound was kept fixed. […]

Caco-2 cells = assay: Cytotoxicity in Caco-2 cells, sulforhodamine B (SRB) binding assay; assay type: cell-based, human; conditions: 24 h after exposure
Description: Caco-2 cells were routinely cultured in 75 cm^2 flasks using DMEM with 4.5 g/L glucose supplemented with 10% FBS, 1% NEAA and 1% antibiotic. Cells were maintained at 37 °C, in a 5% CO2 and 95% air atmosphere, and the cell culture medium was changed every 2−3 days. Cultures were passaged weekly by trypsinization (0.25% trypsin/1 mM EDTA). In all experiments, the cells were seeded at a density of 60,000 cells/cm^2 and used three days after seeding, when confluence was reached. The cells used in all experiments were taken between the 55th and 64th passages.
The compounds’ (0−20 μM) cytotoxicity was evaluated by the neutral red (NR) uptake and Sulforhodamine B (SRB) binding assays, 24 h after exposure. Caco-2 cells were seeded onto 96-well plates at a density of 60,000 cells/cm^2 and exposed, after reaching confluence (three days after seeding), to the compounds (0–20 μM), in a fresh cell culture medium. Triton™ X-100 (0.1%) was used as a positive control.
The SRB binding assay is based on the pH-dependent binding of SRB to basic amino acids of cellular proteins under mild acidic conditions. […] The bounded SRB was then extracted with a Tris base solution (10 mM, pH 10.5) and the absorbance was measured, at 540 nm, in a multi-well plate reader (PowerWaveX BioTek Instruments, VT, USA). […]

E. faecalis B3/101 = assay: Synergy with vancomycin (antibiotic MIC in presence of compound); assay type: cell-based, Enterococcus faecalis
Excerpt: as §1
The combined effect of the compounds and clinically relevant antimicrobial drugs was evaluated by determining the antibiotic’s MIC in the presence of each compound. […] The antibiotic tested was serially diluted, whereas the concentration of each compound was kept fixed. In the case of compound 12, the concentration used was 8 µg/mL. For all other compounds, the concentration used was 64 µg/mL. Antibiotic MICs were determined as described above.

P-gp = system: P-gp; design: method as in PMID 22044878; conditions: cited from earlier work

CCCOc1ccc(Br)c2c(=O)c3ccccc3sc12 [Compound 14, 1-Bromo-4-propoxy-9H-thioxanthen-9-one]
P-gp expression levels (control cells 100%) (P-glycoprotein (P-gp)): 83%

CCCOc1ccc2c3c(n/c(=N\c4ccccc4C)n2-c2ccccc2C)-c2ccccc2Sc13 [Compound 18]
decrease in the MIC of CTX (E. coli SA/2): 4 fold

CCCOc1ccc(NS(=O)(=O)c2ccc(C(=O)O)cc2)c2c(=O)c3ccccc3sc12 [Compound 12, 4-[N-(9-Oxo-4-propoxy-9H-thioxanthen-1-yl)sulfamoyl]benzoic acid]
decrease in the MIC of CTX (E. coli SA/2): 16 fold

CCCOc1ccc2nc(NCc3ccccc3Cl)nc3c2c1Sc1ccccc1-3 [Compound 17]
SRB binding vs control cells (Caco-2 cells; 10 µM): no significant differences
SRB binding (relative to control cells) (Caco-2 cells; 20 µM): 105.8%

CCCOc1ccc(NCCO)c2c(=O)c3ccccc3sc12 [Compound 10, 1-[(2-Hydroxyethyl)amino]-4-propoxy-9H-thioxanthen-9-one]
decrease in the MIC of CTX (E. coli SA/2): 4 fold

CCCOc1ccc(N2CCNC(=O)C2)c2c(=O)c3ccccc3sc12 [Compound 9, 4-(9-Oxo-4-propoxy-9H-thioxanthen-1-yl)piperazin-2-one]
decrease of the MIC of VAN (E. faecalis B3/101): 16 fold
P-gp expression levels (control cells 100%) (P-glycoprotein (P-gp)): no significant differences

CCCOc1ccc(Nc2nc(C)cc(C)n2)c2c(=O)c3ccccc3sc12 [Compound 8, 1-[(4,6-Dimethylpyrimidin-2-yl)amino]-4-propoxy-9H-thioxanthen-9-one]
decrease in the MIC of CTX (E. coli SA/2): 4 fold

CCCOc1ccc(NCCN(CC)CC)c2c(=O)c3ccccc3sc12 [Compound 2]
type of P-gp inhibition (P-gp): competitive inhibitor

Source: PMC8232621, “Antimicrobial Activity of a Library of Thioxanthones and Their Potential as Efflux Pump Inhibitors” (Pharmaceuticals, 2021)
